Assay results: patent publication US7250304B2, “Functional assay of high-density lipoprotein” (The Regents of the University of California, priority 2000, dated 2007)

Key:
[1] = system: human artery wall cell cocultures; test: Monocyte chemotaxis assay on coculture conditioned medium; format: cell-based; conditions: for LDL-induced monocyte chemotaxis in pretreated cocultures: cocultures incubated 8 hrs with agent, agent removed before LDL; for decrease in LDL-induced monocyte chemotactic activity: cocultures preincubated with inhibitor 1×10^−8 mol/L before addition of LDL 250 μg/ml; for LDL-induced monocyte chemotaxis in fatty acid pretreated cocultures: cocultures 18 hours with 100 μM fatty acid, washed, then LDL
Method: (§1) The wells of the microtiter plates were treated with 0.1% gelatin at 37° C. overnight. HASMC were added at a confluent density of 1×10^5 cells/cm^2. Cells were cultured for 2 d at which time they had covered the entire surface of the well and had produced a substantial amount of extracellular matrix. HAEC were subsequently added at 2×10^5 cells/cm^2 and were allowed to grow forming a complete monolayer of confluent HAEC in 2 d. In all experiments, HAEC and autologous HASMC (from the same donor) were used at passage levels of four to six.
Monocytes were isolated using a modification of the Recalde method as previously described (Fogelman et al. (1988) J. Lipid Res. 29: 1243-1247) from the blood of normal volunteers after obtaining written consent under a protocol approved by the human research subject protection committee of the University of California, Los Angeles.
(§2) In general, the cocultures were treated with native LDL (250 μg/ml) in the absence or presence of HDL for 8 h. The supernatants were collected and used for determination of lipid hydroperoxide levels. The cocultures were subsequently washed and fresh culture medium 199 (M199) without any additions was added and incubated for an additional 8 hrs. This allowed the collection of monocyte chemotactic activity released by the cells as a result of stimulation by the oxidized LDL. At the end of incubation, the supernatants were collected from cocultures, diluted 40-fold, and assayed for monocyte chemotactic activity. Briefly, the supernatant was added to a standard Neuroprobe chamber (NeuroProbe, Cabin John, Md.), with monocytes added to the top. The chamber was incubated for 60 min at 37° C. After the incubation, the chamber was disassembled and the nonmigrated monocytes were wiped off. The membrane was then air dried and fixed with 1% glutaraldehyde and stained with 0.1% Crystal Violet dye. The number of migrated monocytes was determined microscopically and expressed as the mean±SD of 12 standardized high power fields counted in quadruple wells.

[2] = system: human artery wall cell cocultures; test: LDL oxidation by human artery wall cell cocultures (lipid hydroperoxides); format: cell-based; conditions: for ability of pretreated artery wall cocultures to oxidize LDL: cocultures incubated 8 hrs with agent, agent removed before LDL 250 μg/ml; for reduction in lipid hydroperoxide levels: cocultures preincubated with inhibitor 1×10^−8 mol/L before addition of LDL 250 μg/ml, 8 hrs; for oxidation of LDL by fatty acid pretreated artery wall cells: cocultures 18 hours with 100 μM fatty acid, washed, then LDL 250 μg/ml
Method: as §1, §2
(§3) Statistical significance was determined by model 1 ANOVA. […] Significance is defined as p<0.05.
Human artery wall cocultures were preincubated with ETYA at a concentration of 10^−8 mol/L or with cinnamyl-3,4-dihydroxy-α-cyanocynamate (CDC, from Biomol) at a concentration of 10^−8 mol/L in M199 containing 10% LPDS for 30 min. The cocultures were then washed and LDL was added at 250 μg/ml and incubated for 8 hrs.

[3] = Non-enzymatic oxidation of PAPC to POVPC, PGPC, PEIPC (ESI-MS); conditions: for amount that significantly decreased PAPC and increased the three oxidized phospholipids: added to 10 μg of PAPC for 8 hours
[4] = system: human artery wall cell cocultures; test: Hydroperoxide content of apo A-I lipid extract from fatty acid treated cocultures; format: cell-based; conditions: cocultures with or without C18:2, then apo A-I 100 μg/ml 3 hrs
Method: The medium was removed and the cultures washed three times. Fresh medium without fatty acids was added and the cultures were incubated at 37° C. for an additional 3 hrs. […] at 250 μg/ml was then added to one set of the cocultures in M199 containing 10% LPDS and incubated for 8 hrs. The medium was then removed and lipid hydroperoxides (Panel A) and monocyte chemotactic activity (Panel B) determined. To the second set of cocultures (Panel C) apo A-I was added at 100 μg/ml and incubated for three more hours with gentle mixing at 37° C. […] Values are mean±SD of triplicate determinations. The asterisks denote p<0.001. […] (1991) Drug Metab. Dispos. 19: 100-106). Statistical significance was determined by model 1 ANOVA. […] Significance is defined as p<0.05.

[5] = system: paraoxonase; conditions: mice, six hours after injection
[6] = system: human aortic endothelial cells; test: Lipid hydroperoxide formation when treated LDL is added to HAEC; format: cell-based; conditions: LDL 250 μg pre-incubated with agent 4 hrs, re-isolated
Method: (§4) Freshly isolated LDL (250 μg) was incubated with pure 13(S)-HPODE (1.0 μg) in 10% LPDS in M 199 for 4 hrs at 37° C. with gentle mixing. LDL was re-isolated by centrifugation and was incubated with monolayers of human aortic endothelial cells. Supernatants were removed at time points ranging from zero to 5 hours and were assayed for lipid hydroperoxide content. The endothelial monolayer was washed after each time point and a monocyte suspension was added, incubated, washed, and the number of adherent monocytes determined.
Freshly isolated LDL (250 μg) was incubated with 10 units of pure soybean lipoxygenase bound to sepharose beads for 4 hrs at 37° C. with gentle mixing. LDL was re-isolated by centrifugation and incubated with monolayers of HAEC. Supernatants were removed at time points ranging from zero to 4 hours and were assayed for lipid hydroperoxide content. The endothelial monolayer was washed after each time point and monocyte adhesion determined.
as §3

[7] = Non-enzymatic formation of cholesteryl linoleate hydroperoxide (RP-HPLC); conditions: 0.5 μg/ml with cholesteryl linoleate 10 μg/ml, air oxidation 6 hrs
Method: […] 0.5 μg/ml (Panel A) or cholesteryl linoleate 10 μg/ml (Panel B) or cholesteryl linoleate 10 μg/ml together with 13(S) HPODE 0.5 μg/ml (Panel C) in chloroform/methanol (2:1, v/v) containing 0.01% BHT was briefly swirled to mix and evaporated to dryness under argon and allowed to undergo air oxidation in a laminar flow hood for 6 hrs. The lipids were solubilized in 50 μl of chloroform and analyzed for the presence of cholesteryl linoleate hydroperoxide (Ch18:2-OOH) by RP-HPLC as described herein.
Fast performance liquid chromatography (FPLC) and reverse phase high performance liquid chromatography ([…]) were performed as described in example 1. For the detection of cholesteryl linoleate hydroperoxide an Alltech Alltima 250×4.6 mm, 5 micron RP-HPLC C18 column was used to separate and detect cholesteryl linoleate hydroperoxide at 234 nm and cholesteryl linoleate at 205 nm. The mobile solvent consisted of acetonitrile/2-propanol/water (44:54:2, v/v/v) at 1.0 ml/min. Lipids were resuspended in the mobile solvent for injection.

[8] = system: HAEC monolayers; test: Monocyte adhesion assay; format: cell-based, human; conditions: LDL 250 μg pre-incubated with agent 4 hrs, re-isolated
Method: In brief, HAEC monolayers, in 48-well tissue culture plates were incubated with the desired LDL or phospholipid for 4 hrs at 37° C. as described (Watson et al. (1995) J. Clin. Invest. 96: 2882-2891). After washing, a suspension of human peripheral blood monocytes was added and incubated for 10 min. The loosely adherent monocytes were then washed away, the monolayers were fixed and the number of adherent monocytes counted in 9 high power microscopic fields.
as §4, with “Supernatants were removed at time points ranging from zero to 5 hours and were assayed for lipid hydroperoxide content.” left out
Freshly isolated LDL (250 μg) was incubated with 10 units of pure soybean lipoxygenase bound to sepharose beads for 4 hrs at 37° C. with gentle mixing. […] The endothelial monolayer was washed after each time point and monocyte adhesion determined.
Blood samples were collected from patients referred to the cardiac catheterization laboratory at The Center for Health Sciences at the University of California, Los Angeles. […] The HDL-Ox-PAPC mixture was then added to endothelial monolayers and monocyte binding was determined.

Molecule: DWL KAF YDK VAE KLK EAF PDW LKA FYD KVA EKL KEA F (DWLKAFYDKVAEKLKEAFPDWLKAFYDKVAEKLKEAF; Synthetic apo A-I peptide mimetic) [37 pA]
- LDL-induced monocyte chemotaxis in pretreated cocultures [1]: did not induce monocyte chemotaxis
- LDL-induced monocyte chemotactic activity of LDL pre-incubated with the agent ([1]; human LDL incubated with agent, re-isolated, then cocultures): did not induce monocyte chemotactic activity
- ability of pretreated artery wall cocultures to oxidize LDL [2]: unable to oxidize the added LDL

Molecule: CCCCC[C@@H](/C=C/C=C\C/C=C\C/C=C\CCCC(=O)O)OO [15(S)-HPETE, 15(S)-hydroperoxyeicosatetraenoic acid]
- ability to oxidize PAPC on a molar basis relative to hydrogen peroxide [3]: more than two orders of magnitude greater
- amount that significantly decreased PAPC and increased the three oxidized phospholipids [3]: 0.5 µg

Molecule: N#CC(=Cc1ccc(O)c(O)c1)C(=O)OCC=Cc1ccccc1 [CDC, cinnamyl-3,4-dihydroxy-α-cyanocynamate]
- decrease in LDL-induced monocyte chemotactic activity [1]: 74±11%
- reduction in lipid hydroperoxide levels [2]: 73±6%

Molecule: CCCCC/C=C\C/C=C\C/C=C\C/C=C\CCCC(=O)O [arachidonic acid]
- oxidation of LDL by fatty acid pretreated artery wall cells [2]: even more potent than linoleic acid

Molecule: CCCCCC#CCC#CCC#CCC#CCCCC(=O)O [ETYA, 5,8,11,14-eicosatetraynoic acid]
- decrease in LDL-induced monocyte chemotactic activity [1]: 75±10%
- reduction in lipid hydroperoxide levels [2]: 80±7%

Molecule: CCCCC/C=C\C/C=C\CCCCCCCC(=O)O [linoleic acid]
- LDL-induced monocyte chemotaxis in fatty acid pretreated cocultures [1]: stimulates LDL-induced monocyte chemotaxis
- oxidation of LDL by fatty acid pretreated artery wall cells [2]: stimulates the oxidation of LDL by artery wall cells
- 13-HPODE equivalents in the lipid extract of apo A-I [4]: dramatically increased the 13-HPODE equivalents

Molecule: apo A-II: Human apo A-II obtained from Sigma
- LDL-induced monocyte chemotaxis in pretreated cocultures [1]: induce monocyte chemotaxis
- ability of pretreated artery wall cocultures to oxidize LDL [2]: retained their ability to oxidize LDL
- PON activity in plasma and HDL, increase [5]: did not change

Molecule: CCCCCCCC/C=C\CCCCCCCC(=O)O [oleic acid]
- LDL-induced monocyte chemotaxis in fatty acid pretreated cocultures [1]: not
- oxidation of LDL by fatty acid pretreated artery wall cells [2]: not

Molecule: CCCCC[C@@H](/C=C/C=C\CCCCCCCC(=O)O)OO [13(S)-HPODE, 13(S)-hydroperoxyoctadecadienoic acid]
- formation of lipid hydroperoxides when treated LDL added to HAEC [6]: increased the formation of lipid hydroperoxides
- ability to oxidize PAPC on a molar basis relative to hydrogen peroxide [3]: more than two orders of magnitude greater
- formation of POVPC, PGPC, PEIPC from PAPC as a function of time ([3]; 1.0 μg added to 10 μg PAPC, air oxidation): enhanced the formation of the three biologically active oxidized phospholipids at each time point sampled
- amount that significantly decreased PAPC and increased the three oxidized phospholipids [3]: 0.5 µg
- non-enzymatic formation of cholesteryl linoleate hydroperoxide (Ch18:2-OOH) [7]: markedly stimulated the non-enzymatic formation of cholesteryl linoleate hydroperoxide
- monocyte adherence to HAEC induced by treated LDL [8]: increased monocyte adherence to HAEC

Molecule: OO [hydrogen peroxide]
- effect on relative abundance of PAPC and formation of oxidized phospholipids ([3]; 2 mM and 4 mM, 10 μg PAPC, 8 hours): had no effect
- effect on relative abundance of PAPC ([3]; 8 mM added to 10 μg PAPC for 8 hours): dramatically decreased the relative abundance of PAPC
